ChEMBL document CHEMBL3885861, “Open TG-GATES”

Species on record: Rattus norvegicus
Assay: Open TG-GATES - Regimen: Single
Format: toxicity, organism-based, Sprague-Dawley
Parameters: regimen Single, gender Male, age 6 weeks
Conditions: in vivo, po, route gavage; for TP / gamma-GTP / A/G / ALP / ALT / AST / BUN / CRE / Ca / Cl / DBIL / GLC / IP / K / LDH / Na / PL / RALB / TBIL / TC / TG: tissue Plasma; for APTT / Bas / Eos / Fbg / Hb / Ht / Lym / MCH / MCHC / MCV / Mono / Neu / PT / Plat / RBC / Ret / WBC: tissue Blood; for KIDNEY_L / KIDNEY_R / KIDNEY_TOTAL: tissue Kidney; for LIVER: tissue Liver
[1] = 2 mg/kg, 3 h, dose level Middle
[2] = 2 mg/kg, 6 h, dose level Middle
[3] = 2 mg/kg, 9 h, dose level Middle

**Q.** What does the source list for `COc1ccc2c(c1)c(CC(=O)O)c(C)n2C(=O)c1ccc(Cl)cc1` [INDOMETHACIN]?
**A.** TP (1 mg/kg, 9 h, dose level Low): 5.3 g/dL; gamma-GTP (1 mg/kg, 9 h, dose level Low): 1.4 IU/L; TERMINAL_BW (1 mg/kg, 24 h, dose level Low): 215.2 g; APTT (1 mg/kg, 24 h, dose level Low): 16.8 s; Bas (1 mg/kg, 24 h, dose level Low): 0%; Eos (1 mg/kg, 24 h, dose level Low): 0.8%; Fbg (1 mg/kg, 24 h, dose level Low): 198.2 mg/dL; Hb (1 mg/kg, 24 h, dose level Low): 13.5 g/dL; Ht (1 mg/kg, 24 h, dose level Low): 40.7%; Lym (1 mg/kg, 24 h, dose level Low): 79%; MCH (1 mg/kg, 24 h, dose level Low): 21.8 pg; MCHC (1 mg/kg, 24 h, dose level Low): 33.2%; MCV (1 mg/kg, 24 h, dose level Low): 65.6 fL; Mono (1 mg/kg, 24 h, dose level Low): 8.8%; Neu (1 mg/kg, 24 h, dose level Low): 11.4%; PT (1 mg/kg, 24 h, dose level Low): 12.3 s; Plat (1 mg/kg, 24 h, dose level Low): 112.3 x10_4/uL; RBC (1 mg/kg, 24 h, dose level Low): 620.8 x10_4/ul; Ret (1 mg/kg, 24 h, dose level Low): 9%; WBC (1 mg/kg, 24 h, dose level Low): 118.2 x10_2/uL; KIDNEY_L (1 mg/kg, 24 h, dose level Low): 1 g; KIDNEY_R (1 mg/kg, 24 h, dose level Low): 1 g; KIDNEY_TOTAL (1 mg/kg, 24 h, dose level Low): 1.9 g; LIVER (1 mg/kg, 24 h, dose level Low): 10.2 g; A/G (1 mg/kg, 24 h, dose level Low): 2.2; ALP (1 mg/kg, 24 h, dose level Low): 1141.2 IU/L; ALT (1 mg/kg, 24 h, dose level Low): 41.2 IU/L; AST (1 mg/kg, 24 h, dose level Low): 71 IU/L; BUN (1 mg/kg, 24 h, dose level Low): 16.6 mg/dL; CRE (1 mg/kg, 24 h, dose level Low): 0.5 mg/dL; Ca (1 mg/kg, 24 h, dose level Low): 10.3 mg/dL; Cl (1 mg/kg, 24 h, dose level Low): 105.2 meq/L; DBIL (1 mg/kg, 24 h, dose level Low): 0.016 mg/dL; GLC (1 mg/kg, 24 h, dose level Low): 202.6 mg/dL; IP (1 mg/kg, 24 h, dose level Low): 8.6 mg/dL; K (1 mg/kg, 24 h, dose level Low): 5.1 meq/L; LDH (1 mg/kg, 24 h, dose level Low): 85 IU/L; Na (1 mg/kg, 24 h, dose level Low): 138.4 meq/L; PL (1 mg/kg, 24 h, dose level Low): 152.8 mg/dL; RALB (1 mg/kg, 24 h, dose level Low): 3.9 g/dL; TBIL (1 mg/kg, 24 h, dose level Low): 0.3 mg/dL; TC (1 mg/kg, 24 h, dose level Low): 88.4 mg/dL; TG (1 mg/kg, 24 h, dose level Low): 72 mg/dL; TP (1 mg/kg, 24 h, dose level Low): 5.7 g/dL; gamma-GTP (1 mg/kg, 24 h, dose level Low): 1 IU/L; TERMINAL_BW [1]: 195.5 g; APTT [1]: 17 s; Bas [1]: 0%; Eos [1]: 0.8%; Fbg [1]: 215 mg/dL; Hb [1]: 13.5 g/dL; Ht [1]: 40.3%; Lym [1]: 80.2%; MCH [1]: 22.2 pg; MCHC [1]: 33.5%; MCV [1]: 66.2 fL; Mono [1]: 8%; Neu [1]: 11.4%; PT [1]: 12.6 s; Plat [1]: 109.7 x10_4/uL; RBC [1]: 609.4 x10_4/ul; Ret [1]: 10.3%; WBC [1]: 99.3 x10_2/uL; KIDNEY_L [1]: 0.9 g; KIDNEY_R [1]: 0.9 g; KIDNEY_TOTAL [1]: 1.8 g; LIVER [1]: 8.7 g; A/G [1]: 1.6; ALP [1]: 1158.6 IU/L; ALT [1]: 39.8 IU/L; AST [1]: 74.4 IU/L; BUN [1]: 10.6 mg/dL; CRE [1]: 0.4 mg/dL; Ca [1]: 10.3 mg/dL; Cl [1]: 105.8 meq/L; DBIL [1]: 0.056 mg/dL; GLC [1]: 185.2 mg/dL; IP [1]: 10 mg/dL; K [1]: 4.8 meq/L; LDH [1]: 99.4 IU/L; Na [1]: 137.4 meq/L; PL [1]: 125 mg/dL; RALB [1]: 3.7 g/dL; TBIL [1]: 0.4 mg/dL; TC [1]: 72.2 mg/dL; TG [1]: 40 mg/dL; TP [1]: 6 g/dL; gamma-GTP [1]: 1.2 IU/L; TERMINAL_BW [2]: 199.6 g; APTT [2]: 17 s; Bas [2]: 0%; Eos [2]: 0.8%; Fbg [2]: 206.8 mg/dL; Hb [2]: 13.3 g/dL; Ht [2]: 40.2%; Lym [2]: 81.2%; MCH [2]: 21.6 pg; MCHC [2]: 33.2%; MCV [2]: 65.1 fL; Mono [2]: 6.4%; Neu [2]: 12%; PT [2]: 12.5 s; Plat [2]: 106.7 x10_4/uL; RBC [2]: 617.8 x10_4/ul; Ret [2]: 9.6%; WBC [2]: 84.6 x10_2/uL; KIDNEY_L [2]: 0.9 g; KIDNEY_R [2]: 0.9 g; KIDNEY_TOTAL [2]: 1.8 g; LIVER [2]: 8.6 g; A/G [2]: 1.8; ALP [2]: 959 IU/L; ALT [2]: 36.8 IU/L; AST [2]: 75 IU/L; BUN [2]: 10.6 mg/dL; CRE [2]: 0.5 mg/dL; Ca [2]: 10.1 mg/dL; Cl [2]: 107 meq/L; DBIL [2]: 0.036 mg/dL; GLC [2]: 188.4 mg/dL; IP [2]: 9.1 mg/dL; K [2]: 4.9 meq/L; LDH [2]: 91.4 IU/L; Na [2]: 137.4 meq/L; PL [2]: 120.8 mg/dL; RALB [2]: 3.8 g/dL; TBIL [2]: 0.3 mg/dL; TC [2]: 73.4 mg/dL; TG [2]: 38.6 mg/dL; TP [2]: 5.9 g/dL; gamma-GTP [2]: 2.2 IU/L; TERMINAL_BW [3]: 198.4 g; APTT [3]: 16.6 s; Bas [3]: 0%; Eos [3]: 0.6%; Fbg [3]: 210 mg/dL; Hb [3]: 13.1 g/dL; Ht [3]: 39.8%; Lym [3]: 79.6%; MCH [3]: 21.8 pg; MCHC [3]: 33%; MCV [3]: 66.1 fL; Mono [3]: 8.2%; Neu [3]: 11.8%; PT [3]: 12.4 s; Plat [3]: 108.3 x10_4/uL; RBC [3]: 602.2 x10_4/ul; Ret [3]: 9.7%
